{"source": "patent US10858415B2", "about": "“Peptide mimotopes of claudin 18.2 and uses thereof” (BioNTech AG, priority 2014, dated 2020)", "key": {"IMAB362 [1]": {"test_system": "IMAB362", "test": "Peptide microarray incubation with IMAB362", "assay_type": "binding", "settings": "IMAB362 1 μg/ml; percentage of fluorescence assay signal of the hit peptide", "experimental": "Peptides were synthesized and printed on peptidemicroarray slides essentially as described previously [Funkner, A. et al., J. Mol. Biol. 2013, 425, 1340-1362]. In brief, the peptides were synthesized using SPOT synthesis [Wenschuh, H. et al., Biopolymers 2000, 55, 188-206] cleaved from the solid support and cyclized (50% DMSO, PBS buffer pH 7-8, RT, 16 hours). Subsequently, all peptides were chemoselectively immobilized on functionalized glass slides as described earlier [Funkner, A. et al., J. Mol. Biol. 2013, 425, 1340-1362]. Each peptide was deposited on the microarray in triplicates.\nThe microarrays were incubated with 1.0 or 0.1 μg/ml IMAB362 in an HS 4800 microarray processing station (Tecan) for two hours at 30° C., followed by incubation with 1.0 μg/ml fluorescently labelled secondary antibody (Alexa647 anti-human Fc antibody; Jackson Immuno Research). Washing steps were performed prior every incubation step with 0.1% Tween-20 in 1×TBS. After the final incubation step the microarrays were washed (0.05% Tween-20 in 0.1×SSC) and dried in a stream of nitrogen. Each microarray was scanned using a GenePix Autoloader 4200AL (Molecular Devices, Pixel size: 10 μm). Signal intensities were evaluated using GenePix Pro 7.0 analysis software (Molecular Devices). For each peptide, the mean of the three triplicates was calculated.\nPeptide microarrays were used for structure-activity-relationship (SAR) analysis and optimization of peptide binding affinity to IMAB362. For assay setup three variants of each cyclic hit peptide (sequences 1, 2 and 3, Table 1) were prepared differing in a) the immobilization site, b) the linker nature and c) the degree of conformational restriction (cyclic vs. linear). All peptides were chemically synthesized in a stepwise fashion from the C- to the N-terminus by the high-throughput SPOT synthesis approach [Wenschuh, H. et al., Biopolymers 2000, 55, 188-206] applying a cellulose membrane as solid support. After cleavage and isolation, the peptides were cyclised through disulfide formation between two internal Cys residues and immobilized to the microarray. Covalent attachment to the microarray was performed through a reactive moiety on either the N- or C-terminus of the peptides allowing chemoselective and directed immobilization through both ends of the peptides. Subsequently, peptide loaded microarrays were incubated with 1.0 or 0.1 μg/ml IMAB362 followed by incubation with 1 μg/ml fluorescently labelled secondary antibody, scanning and data evaluation."}, "IMAB362 [2]": {"test_system": "IMAB362", "test": "Peptide ELISA, biotinylated peptides on streptavidin plates", "assay_type": "binding", "method": "For the detection of IMAB362, the CLDN18.2 mimicking peptides were immobilized on streptavidin plates (Nunc) in a concentration of 0.75 μg/ml in PBS buffer for 1 hour at 37° C. Subsequently, the plate was washed three times with washing buffer (0.01% Tween-20 in PBS buffer) before it was blocked with 3% BSA in PBS overnight at 4° C. To detect IMAB362, the blocked plate was washed again three times with washing buffer followed by the addition of IMAB362 and incubation for 30 min at 37° C. After another washing step, it was incubated with an alkaline phosphatase conjugated anti-human Fc antibody (Jackson Immuno Research) for additional 30 min at 37° C. Finally, the plate was washed again before being incubated with 1.5 mg/ml of the substrate PNPP (para-nitrophenyl phosphate) in appropriate substrate buffer (1 M Diethanolamine, 0.05 mM MgCl2, 0.01% sodium azide, pH 9.8) for 30 min at RT in the dark. 3 M KOH was used to stop the enzymatic reaction. Absorbance was measured with a microplate reader (Infinite M200, Tecan). For dual wavelength analysis, 405 nm was chosen as measurement wavelength and 492 nm as reference wavelength. Absorbance values were calculated by subtraction of the measured values for the reference wavelength and for the measurement wavelength. Calculation of apparent KD values was done by fitting the data with Sigma Plot 10 using a two-site saturation binding model. […]"}, "[3]": {"test": "In vivo pharmacokinetic analysis, serum measured by peptide ELISA with 2c mimotope peptide", "settings": "approximately 50 mg/kg intravenously, Balb/cJ mice", "experimental": "After 8, 24, 48, 72, 144, 168 and 192 hrs, blood samples were taken from two mice of each group for serum preparation. The serum samples were to be measured in the linear range of the assay (approximately 0.3-300 ng/ml). […] An IMAB362 standard row in presence of murine Balb/cJ control serum was assayed in parallel (0-25 ng/ml). The standard raw data were fitted by linear regression to calculate the antibody concentration from the mouse samples at the respective timepoint. Before the pharmakokinetic analysis, a permission for the animal experiment was obtained from the relevant local authority."}, "[4]": {"test_system": "advanced gastro-esophageal cancer", "settings": "multiply pre-treated late-stage patients, single agent; cited from earlier work"}}, "data": [{"compound": "ACHLGYPGRCG [X-Ttds-Linearpeptide Seq. 3]", "values": [{"measurement": "% Affinity compared to hit peptide", "setting": "IMAB362 [1]", "value": 0.1, "unit": "%"}]}, {"compound": "ACHYSYPGVCG [X-Ttds-Linearpeptide Seq. 2]", "values": [{"measurement": "% Affinity compared to hit peptide", "setting": "IMAB362 [1]", "value": 0, "unit": "%"}]}, {"compound": "ACHLGYPGRCG [Cyclopeptide-GGS-K(X) Seq. 3]", "values": [{"measurement": "% Affinity compared to hit peptide", "setting": "IMAB362 [1]", "value": 100, "unit": "%"}]}, {"compound": "CC(C)[C@@H]1NC(=O)CNC(=O)[C@@H]2CCCN2C(=O)[C@H](Cc2ccc(O)cc2)NC(=O)CNC(=O)[C@H](Cc2ccc(O)cc2)NC(=O)[C@H](Cc2c[nH]cn2)NC(=O)[C@@H](NC(=O)[C@H](C)NC(=O)CCC(=O)NCCCOCCOCCOCCCNC(=O)CCCC[C@@H]2SC[C@@H]3NC(=O)N[C@@H]32)CSSC[C@@H](C(=O)NCC(=O)O)NC1=O", "note": "[Peptide 2c]", "values": [{"measurement": "binding curves of IMAB362 to peptide when antibody diluted with human serum", "setting": "IMAB362 [2]; up to 20% human serum, background signal slightly increased at high serum concentrations", "value": "looked similar"}, {"measurement": "binding of IMAB362 to peptide in the presence of mouse serum", "setting": "IMAB362 [2]; up to 20% mouse serum", "value": "almost not affected"}]}, {"compound": "ACHLNYPGYCG [X-Ttds-Linearpeptide Seq. 1]", "values": [{"measurement": "% Affinity compared to hit peptide", "setting": "IMAB362 [1]", "value": 0, "unit": "%"}]}, {"compound": "ACHYSYPGVCG [Cyclopeptide-GGS-K(X) Seq. 2]", "values": [{"measurement": "% Affinity compared to hit peptide", "setting": "IMAB362 [1]", "value": 100, "unit": "%"}]}, {"compound": "IMAB362: highly tumor-specific monoclonal IgG1 antibody directed against Claudin 18 isoform 2 (CLDN18.2)", "values": [{"measurement": "IMAB362 concentration in mice", "setting": "[3]; after 8 hours", "value": "approximately 800 μg/ml"}, {"measurement": "IMAB362 concentration in mice", "setting": "[3]; at the end of the study (192 hrs)", "value": "approximately 350 μg/ml"}, {"measurement": "antitumoral activity", "setting": "[4]", "value": "antitumoral activity"}, {"measurement": "tolerability", "setting": "[4]", "value": "have shown tolerability"}]}, {"compound": "ACHLNYPGYCG [Cyclopeptide-GGS-K(X) Seq. 1]", "values": [{"measurement": "% Affinity compared to hit peptide", "setting": "IMAB362 [1]", "value": 100, "unit": "%"}]}]}
